Experimental data reported in patent publication US20030203372A1, “Analysis method” (priority 2000, published 2003).

How the values were obtained:
[1] = Hypoxia response of the referenced genes/sequences, summary in cross-reference Table 26; format: cell-based, human; settings: direction of expression change of the gene/sequence in response to hypoxia
[2] = test system: primary human cell cultures (11 cell types); assay: Custom gene array, 11 human cell types in normoxia or hypoxia for 6 hr and 18 hr; format: cell-based
Protocol: Equivalent cultures of non-immortalized, non-transformed primary human cells of 10 distinct types, were cultured in either normoxia or were exposed to hypoxia for 6 hr and 18 hr, and gene expression changes were determined. […] Moreover, unlike the vast majority of information in the public domain relating to genes responsive to hypoxia, all of these cells were human and were cultured without any modifications following isolation from the human donors.
A non-primary cell type (#9) was used to represent neurons, since primary human neurons are difficult to source. Therefore a total of 11 cell types are compared. It should be noted that RNA from hepatocytes at the […] timepoint of hypoxia was not available for this work.
Each RNA sample was hybridised to duplicate or triplicate arrays, to ensure reproducible data, and was analysed using GeneSpring software. Data from replicate arrays were merged during analysis to generate mean values. Data normalisation was achieved per-array using the aforementioned list of control genes, such that differences in RNA labelling or hybridization due to experimental variation were corrected by referencing each gene to the mean value of the reference genes on the same array. Also, for each gene, expression values were obtained which represent the value in each experimental condition (e.g. macrophages 6 hr hypoxia) as compared to the median of value of that gene throughout the full range of experimental conditions (i.e. from all cell types). […] This is common in microarray data analysis.

In the case of Interleukin 8, the Hypoxia response [1] was “Increase”.
With Monocyte chemotactic protein 1 the Hypoxia response [1] was “Repression”.
For Osteopontin, the Hypoxia response [1] was “Increase”.
For Vascular endothelial growth factor, the Hypoxia response [1] was “Increase”.
With p1G10 the mRNA expression level ([2]; cell type #1, HY (hypoxia) 6 hr) was 0.61, the mRNA expression level ([2]; cell type #1, HY (hypoxia) 18 hr) was 1.52 and the mRNA expression level ([2]; cell type #1, NO (normoxia)) was 1.01. It also gave a mRNA expression level ([2]; cell type #2, HY (hypoxia) 6 hr) of 1.76, a mRNA expression level ([2]; cell type #2, HY (hypoxia) 18 hr) of 1.65 and a mRNA expression level ([2]; cell type #2, NO (normoxia)) of 1.69. For the same substance, the mRNA expression level ([2]; cell type #3, HY (hypoxia) 6 hr) was 3.58, the mRNA expression level ([2]; cell type #3, HY (hypoxia) 18 hr) was 2.49 and the mRNA expression level ([2]; cell type #3, NO (normoxia)) was 2.01. For the same substance, the mRNA expression level ([2]; cell type #4, HY (hypoxia) 6 hr) was 1.13, the mRNA expression level ([2]; cell type #4, HY (hypoxia) 18 hr) was 0.99 and the mRNA expression level ([2]; cell type #4, NO (normoxia)) was 1.32. It also gave a mRNA expression level ([2]; cell type #5, HY (hypoxia) 6 hr) of 0.65, a mRNA expression level ([2]; cell type #5, NO (normoxia)) of 0.44 and a mRNA expression level ([2]; cell type #6, HY (hypoxia) 6 hr) of 0.62. It also gave a mRNA expression level ([2]; cell type #6, NO (normoxia)) of 0.44.
